Data as given in patent US9555038B2, “Heterocycle-substituted tetracyclic compounds and methods of use thereof for the treatment of viral diseases” (Merck Sharp & Dohme Corp., priority 2013, dated 2017).
Like-named read-outs stand apart in the source and are kept apart here.

Key:
[1] = system: HCV replicon 1B; experiment: Cell-based HCV Replicon Assay B, replicon 1B
Method: In an alternate assay (“Replicon Assay B”), 1000 cells were seeded per well in a 384-well collagen coated black plate from Greiner bio-one (Cat #781946) in 5% FBS. Inhibitors of this invention were added at 24 h post-seeding, and the plates were incubated for 3 days. Cells were subsequently lysed with Qiagen lysis buffer (Cat #1062731) to extract the RNA. HCV replicon RNA level was measured by real-time PCR using the RNA-to-CT kit from Applied Biosystem (Cat #4392656) and genotype-specific primers and probes. The amplicon was located within NS5B. The sequence of the PCR primers are as follows: 5B.2F, ATGGACAGGCGCCCTGA (SEQ. ID NO. 1); 5B.2R, […] (SEQ. ID NO. 2); the probe sequence was FAM-labeled CACGCCATGCGCTGCGG (SEQ. ID NO. 3). To detect genotype 1A the primer 1A F, TGCGGAACCGGTGAGTACA and 1A R, […] were used; the probe sequence was FAM-[…].
The real-time RT-PCR reactions were run on ABI PRISM 7900HT or Viia7 Sequence Detection System using the following program: 48° C. for 30 minutes, 95° C. for 10 minutes, 40 cycles of 95° C. for 15 sec, 60° C. for 1 minutes. The 50% effective concentration (EC50) was the drug concentration necessary to achieve an increase in the cycle threshold (CT) of 1 over the projected baseline CT.
Data was obtained for various compounds of the present invention using the methods described in the Example above, and is presented in the table immediately below. Data for replicons 1A, 1AY93H and 2B were obtained using Replicon Assay A and data for replicons 1AQ30D and 1B were obtained using Replicon Assay B.

[2] = system: HCV replicon 1A; experiment: Cell-based HCV Replicon Assay A, replicon 1A
Procedure, shortened: (§1)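 Three-day exposure of replicon cells (2000/well) to serially diluted compound, 0.5% DMSO, 5% serum. RNA per cell was derived as (Ct − intercept)/slope from replicon total RNA standards, with cyclophilin amplified in the same reaction.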

[3] = system: HCV replicon 2B; experiment: Cell-based HCV Replicon Assay A, replicon 2B
Procedure, shortened: as §1

[4] = system: HCV replicon 1AY93H; experiment: Cell-based HCV Replicon Assay A, replicon 1AY93H
Procedure, shortened: as §1

[5] = Hepatitis C virus, read-out: 2B IC50 (nM), replicon 2B
[6] = Hepatitis C virus, read-out: 1A Y93H IC50 (nM), replicon 1AY93H
[7] = read-out: 1A Y93H IC50, replicon 1AY93H

Row | Structure (SMILES) | IC50 ([1]; Hepatitis C virus) [pM] | IC50 ([2]; Hepatitis C virus) [pM] | IC50 [3, 5] [nM] | IC50 ([3]; read-out: 2B IC50, replicon 2B) [nM] | IC50 [4, 7] [nM] | IC50 [1] [pM] | IC50 [2] [pM] | also measured
1 | COC(=O)N[C@H](C(=O)N1CCC[C@H]1c1ncc(-c2cc(F)c3c(c2)OC(c2nc(C4CC4)sc2C)n2c-3cc3cc(-c4cnc([C@@H]5CCCN5C(=O)[C@@H](NC(=O)OC)C(C)C)[nH]4)ccc32)[nH]1)C(C)C (mixture of isomers) [Compound 451] | 2.7 | 2.5 |  |  |  |  |  | 
2 | COC(=O)N[C@H](C(=O)N1CCC[C@H]1c1ncc(-c2cc(F)c3c(c2)OC(c2csnn2)n2c-3cc3cc(-c4cnc([C@@H]5CCCN5C(=O)[C@@H](NC(=O)OC)C(C)C)[nH]4)ccc32)[nH]1)C(C)C (mixture of isomers) [Compound 501] | 3.6 | 3.9 | 1.32 |  |  |  |  | IC50 [4, 6]: 0.857 nM
3 | COCc1ncc(C2Oc3cc(-c4cnc([C@@H]5CCCN5C(=O)[C@@H](NC(=O)OC)C(C)C)[nH]4)cc(F)c3-c3cc4cc(-c5cnc([C@@H]6CCCN6C(=O)[C@@H](NC(=O)OC)C(C)C)[nH]5)ccc4n32)s1 (single isomer, unassigned) [Compound 17] | 2 | 1.2 |  | 0.528 | 1.01 |  |  | 
4 | COC(=O)N[C@H](C(=O)N1CCC[C@H]1c1ncc(-c2cc(F)c3c(c2)OC(c2cnc(-c4ccc(OC)cc4)s2)n2c-3cc3cc(-c4cnc([C@@H]5CCCN5C(=O)[C@@H](NC(=O)OC)C(C)C)[nH]4)ccc32)[nH]1)C(C)C (single isomer, unassigned) [Compound 46] |  |  |  | 0.252 | 0.534 | 1 | 1.8 | 
5 | CCCc1ncc(C2Oc3cc(-c4cnc([C@@H]5CCCN5C(=O)[C@@H](NC(=O)OC)C(C)C)[nH]4)cc(F)c3-c3cc4cc(-c5cnc([C@@H]6CCCN6C(=O)C(NC(=O)OC)C6CCOC(C)(C)C6)[nH]5)ccc4n32)s1 (single isomer, unassigned) [Compound 60] |  |  |  | 0.184 | 0.4 | 4 | 4 | 
6 | COC(=O)NC(C(=O)N1CCC[C@H]1c1ncc(-c2ccc3c(c2)cc2n3C(c3cnc(C(C)(C)O)s3)Oc3cc(-c4cnc([C@@H]5CCCN5C(=O)[C@@H](NC(=O)OC)C(C)C)[nH]4)cc(F)c3-2)[nH]1)C1C[C@@H](C)O[C@@H](C)C1 (single isomer, unassigned) [Compound 73] | 5 | 5.7 |  | 0.146 | 0.586 |  |  | 
7 | COC(=O)N[C@H](C(=O)N1CCC[C@H]1c1ncc(-c2cc(F)c3c(c2)OC(c2cnc(-c4ccc(F)cc4F)s2)n2c-3cc3cc(-c4cnc([C@@H]5CCCN5C(=O)[C@@H](NC(=O)OC)C(C)C)[nH]4)ccc32)[nH]1)C(C)C (single isomer, unassigned) [Compound 98] | 1.2 | 2.7 |  | 0.003 | 0.01 |  |  | 
8 | COC(=O)NC(C(=O)N1CCC[C@H]1c1ncc(-c2ccc3c(c2)cc2n3C(c3cnc(C4CCCC4)s3)Oc3cc(-c4cnc([C@@H]5CCCN5C(=O)[C@@H](NC(=O)OC)C(C)C)[nH]4)cc(F)c3-2)[nH]1)C1CCOC(C)(C)C1 (single isomer, unassigned) [Compound 111] | 2 | 2.2 | 0.003 |  |  |  |  | IC50 [4, 6]: 0.005 nM
9 | CCc1nnc(C2Oc3cc(-c4cnc([C@@H]5CCCN5C(=O)[C@@H](NC(=O)OC)C(C)C)[nH]4)cc(F)c3-c3cc4cc(-c5cnc([C@@H]6CCCN6C(=O)C(NC(=O)OC)C(C)C)[nH]5)ccc4n32)s1 (single isomer, unassigned) [Compound 114] | 3 |  |  |  |  |  | 2.7 | 
10 | COC(=O)N[C@H](C(=O)N1CCC[C@H]1c1ncc(-c2cc(C)c3c(c2)OC(c2cnc(C4CCC4)s2)n2c-3cc3cc(-c4cnc([C@@H]5C[C@H]6C[C@H]6N5C(=O)[C@@H](NC(=O)OC)C(C)C)[nH]4)ccc32)[nH]1)C(C)C (single isomer, unassigned) [Compound 207] | 5 | 3 | 0.25 |  |  |  |  | IC50 [4, 6]: 0.26 nM
11 | COC(=O)NC(C(=O)N1[C@@H]2C[C@@H]2C[C@H]1c1ncc(-c2ccc3c(c2)cc2n3C(c3cnc(C4CC4)s3)Oc3cc(-c4cnc([C@@H]5CCCN5C(=O)[C@@H](NC(=O)OC)C(C)C)[nH]4)cc(F)c3-2)[nH]1)C1C[C@@H](C)O[C@H](C)C1 (single isomer, unassigned) [Compound 312] | 2 | 3.1 |  |  |  | 3 | 2.5 | 
12 | COC(=O)N[C@H](C(=O)N1CCC[C@H]1c1ncc(-c2cc(F)c3c(c2)OC(c2cnc(C4(C)CCCC4)s2)n2c-3cc3cc(-c4cnc([C@@H]5C[C@H]6C[C@H]6N5C(=O)[C@@H](NC(=O)OC)C(C)C)[nH]4)ccc32)[nH]1)C(C)C (single isomer, unassigned) [Compound 455] |  |  |  |  | 0.981 | 3.4 | 1.7 | 
13 | COC(=O)N[C@H](C(=O)N1CCC[C@H]1c1ncc(-c2cc(F)c3c(c2)OC(c2cnc(C4CC4)s2)n2c-3c(C)c3cc(-c4cnc([C@@H]5CCCN5C(=O)[C@@H](NC(=O)OC)C(C)C)[nH]4)ccc32)[nH]1)C(C)C (single isomer, unassigned) [Compound 496] |  |  |  |  |  | 3.5 | 6.9 | 
14 | COC(=O)N[C@H](C(=O)N1CCC[C@H]1c1ncc(-c2cc(F)c3c(c2)OC(c2cc(C)ns2)n2c-3cc3cc(-c4cnc([C@@H]5CCCN5C(=O)[C@@H](NC(=O)OC)C(C)C)[nH]4)ccc32)[nH]1)C(C)C (single isomer, unassigned) [Compound 502] | 2.5 | 1.6 | 2.31 |  |  |  |  | 
15 | COC(=O)N[C@H](C(=O)N1CCC[C@H]1c1ncc(-c2cc(F)c3c(c2)OC(c2sc(C(C)C)nc2C)n2c-3cc3cc(-c4cnc([C@@H]5CCCN5C(=O)[C@@H](NC(=O)OC)C(C)C)[nH]4)ccc32)[nH]1)C(C)C (single isomer, unassigned) [Compound 516] |  |  |  |  | 3.22 | 2.6 | 1.7 | 
16 | COC(=O)N[C@H](C(=O)N1CCC[C@H]1c1ncc(-c2cc(F)c3c(c2)OC(c2cnc(C4CC4)s2)n2c-3cc3cc(-c4cnc([C@@H]5CC6(C)CC6N5C(=O)[C@@H](NC(=O)OC)C(C)C)[nH]4)ccc32)[nH]1)C(C)C (single isomer, unassigned) [Compound 520] |  |  |  |  |  | 3.7 | 3.3 | IC50 ([4]; replicon 1AY93H, read-out: 1A Y93H IC50): 2.71 nM
17 | COC(=O)N[C@H](C(=O)N1CCC[C@H]1c1ncc(-c2cc(F)c3c(c2)OC(c2sc(C4CC4)nc2C2CC2)n2c-3cc3cc(-c4cnc([C@@H]5CCCN5C(=O)[C@@H](NC(=O)OC)C(C)C)[nH]4)ccc32)[nH]1)C(C)C (single isomer, unassigned) [Compound 525] | 2.2 | 4.5 |  |  |  |  |  | 
18 | COC(=O)N[C@H](C(=O)N1CCC[C@H]1c1ncc(-c2cc(F)c3c(c2)OC(c2sc(C4CC4)nc2C2CC2)n2c-3cc3cc(-c4cnc([C@@H]5CCCN5C(=O)[C@@H](NC(=O)OC)C(C)C)[nH]4)ccc32)[nH]1)C(C)C (single isomer, unassigned) [Compound 526] |  |  | 0.537 |  |  | 1.1 | 2.4 | 
19 | COC(=O)NC(C(=O)N1CCC[C@H]1c1ncc(-c2ccc3c(c2)cc2n3C(c3nc4c(s3)CCC4)Oc3cc(-c4cnc([C@@H]5CCCN5C(=O)[C@@H](NC(=O)OC)C(C)C)[nH]4)cc(F)c3-2)[nH]1)C1CCOC(C)(C)C1 (single isomer, unassigned) [Compound 536] |  |  |  |  |  | 2.7 | 2.3 | IC50 ([3]; replicon 2B, read-out: 2B IC50): 0.029 nM
20 | COC(=O)NC(C(=O)N1CCC[C@H]1c1ncc(-c2ccc3c(c2)cc2n3C(c3cnc(CC(C)C)s3)Oc3cc(-c4cnc([C@@H]5CCCN5C(=O)[C@@H](NC(=O)OC)C(C)C)[nH]4)cc(F)c3-2)[nH]1)C1CCOC(C)(C)C1 (single isomer, unassigned) [Compound 543] |  |  |  | 0.153 | 0.167 |  | 2.1 | 
21 | COC(=O)NC(C(=O)N1CCC[C@H]1c1ncc(-c2ccc3c(c2)cc2n3C(c3cnc(CC(C)C)s3)Oc3cc(-c4cnc([C@@H]5CCCN5C(=O)[C@@H](NC(=O)OC)C(C)C)[nH]4)cc(F)c3-2)[nH]1)C1C[C@@H](C)O[C@@H](C)C1 (single isomer, unassigned) [Compound 546] |  | 1.4 |  | 0.165 | 0.315 |  |  | 
22 | COC(=O)N[C@H](C(=O)N1CCC[C@H]1c1ncc(-c2cc(F)c3c(c2)OC(c2cnc(-c4ccc(F)cc4F)s2)n2c-3cc3cc(-c4cnc([C@@H]5CCCN5C(=O)[C@@H](NC(=O)OC)C(C)C)[nH]4)ccc32)[nH]1)C(C)C (some centres unmarked) [Compound 55] |  | 1.2 | 0.003 |  |  |  |  | IC50 [4, 6]: 0.0021 nM
23 | COC(=O)N[C@H](C(=O)N1CCC[C@H]1c1ncc(-c2cc(F)c3c(c2)OC(c2cnc(-c4ccncn4)s2)n2c-3cc3cc(-c4cnc([C@@H]5CCCN5C(=O)[C@@H](NC(=O)OC)C(C)C)[nH]4)ccc32)[nH]1)C(C)C (some centres unmarked) [Compound 503] |  | 2.2 | 0.362 |  |  |  |  | IC50 [4, 6]: 0.149 nM
